Data taken from ChEMBL document CHEMBL5724806, “Unraveling interindividual differences and functional consequences of gut microbial metabolism of immunosuppressants” (2024).

Experiments:
Assay type in all cases: ADME
[1] = (§1) The drug is tested on Bacteroides uniformis strain: DSM6597 for biotransformation under anaerobic condition. The drug concentrations were measured over 6 timepoints collected between 0 and 12 hours of incubation by liquid-chromatography-coupled mass spectrometry (LC–MS); set-up: dose 5 uM, timepoint 0, 1.5, 3, 6, 9, 12 hours; conditions: 5 µM
[2] = The drug is tested on Parabacteroides distasonis strain: DSM20701 for biotransformation under anaerobic condition. The drug concentrations were measured over 6 timepoints collected between 0 and 12 hours of incubation by liquid-chromatography-coupled mass spectrometry (LC–MS); set-up: dose 5 uM, timepoint 0, 1.5, 3, 6, 9, 12 hours; conditions: 5 µM
[3] = The drug is tested on Prevotella copri strain: DSM18205 for biotransformation under anaerobic condition. The drug concentrations were measured over 6 timepoints collected between 0 and 12 hours of incubation by liquid-chromatography-coupled mass spectrometry (LC–MS); set-up: dose 5 uM, timepoint 0, 1.5, 3, 6, 9, 12 hours; conditions: segatella copri, 5 µM
[4] = The drug is tested on Eubacterium rectale strain: DSM17629 for biotransformation under anaerobic condition. The drug concentrations were measured over 6 timepoints collected between 0 and 12 hours of incubation by liquid-chromatography-coupled mass spectrometry (LC–MS); set-up: dose 5 uM, timepoint 0, 1.5, 3, 6, 9, 12 hours; conditions: agathobacter rectalis, 5 µM
[5] = (§2) The drug is tested on Capnocytophaga ochracea strain: DSM7271 for biotransformation under microaerobic condition. The drug concentrations were measured over 6 timepoints collected between 0 and 12 hours of incubation by liquid-chromatography-coupled mass spectrometry (LC–MS); set-up: dose 5 uM, timepoint 0, 1.5, 3, 6, 9, 12 hours; conditions: 5 µM
[6] = as §1, with “the gut metagenome community of T-04 with ENA study accession number: PRJEB31790” for “Bacteroides uniformis strain: DSM6597”, “7” for “6”; set-up: dose 5 uM, timepoint 0, 0.75, 1.5, 3, 6, 9, 12 hours; conditions: 5 µM
[7] = as §1, with “the gut metagenome community of T-05 with ENA study accession number: PRJEB31790” for “Bacteroides uniformis strain: DSM6597”, “7” for “6”; set-up: dose 5 uM, timepoint 0, 0.75, 1.5, 3, 6, 9, 12 hours; conditions: 5 µM
[8] = as §2, with “the gut metagenome community of A-03 with ENA study accession number: PRJEB31790” for “Capnocytophaga ochracea strain: DSM7271”, “7” for “6”; set-up: dose 5 uM, timepoint 0, 0.75, 1.5, 3, 6, 9, 12 hours; conditions: 5 µM
[9] = as §2, with “the gut metagenome community of A-10 with ENA study accession number: PRJEB31790” for “Capnocytophaga ochracea strain: DSM7271”, “7” for “6”; set-up: dose 5 uM, timepoint 0, 0.75, 1.5, 3, 6, 9, 12 hours; conditions: 5 µM
[10] = as §2, with “the gut metagenome community of P-03 with ENA study accession number: PRJEB31790” for “Capnocytophaga ochracea strain: DSM7271”, “7” for “6”; set-up: dose 5 uM, timepoint 0, 0.75, 1.5, 3, 6, 9, 12 hours; conditions: 5 µM

Structure (SMILES)	Bacterial Biotransformation [1]	Bacterial Biotransformation [2]	Bacterial Biotransformation [3]	Bacterial Biotransformation [4]	Bacterial Biotransformation [5]	Bacterial Biotransformation [6]	Bacterial Biotransformation [7]	Bacterial Biotransformation [8]	Bacterial Biotransformation [9]	Bacterial Biotransformation [10]
Cn1cnc([N+](=O)[O-])c1Sc1ncnc2nc[nH]c12 [AZATHIOPRINE]	Compound metabolized	Compound metabolized	Compound metabolized	Compound metabolized	Compound metabolized	Compound NOT metabolized	Compound metabolized	Compound metabolized	Compound NOT metabolized	Compound NOT metabolized
CCCC1O[C@@H]2C[C@H]3[C@@H]4CCC5=CC(=O)C=C[C@]5(C)[C@H]4[C@@H](O)C[C@]3(C)[C@]2(C(=O)CO)O1 (stereo not given in full) [BUDESONIDE]	Compound NOT metabolized	Compound NOT metabolized	Compound NOT metabolized	Compound NOT metabolized	Compound NOT metabolized	Compound NOT metabolized	Compound NOT metabolized	Compound metabolized	Compound metabolized	Compound NOT metabolized
C[C@H]1C[C@H]2[C@@H]3CCC4=CC(=O)C=C[C@]4(C)[C@@]3(F)[C@@H](O)C[C@]2(C)[C@@]1(O)C(=O)CO [BETAMETHASONE]	Compound NOT metabolized	Compound NOT metabolized	Compound NOT metabolized	Compound NOT metabolized	Compound NOT metabolized	Compound NOT metabolized	Compound NOT metabolized	Compound NOT metabolized	Compound NOT metabolized	Compound NOT metabolized
CCOc1nc2cccc(C(=O)O)c2n1Cc1ccc(-c2ccccc2-c2nnn[nH]2)cc1	Compound NOT metabolized	Compound NOT metabolized	Compound NOT metabolized	Compound NOT metabolized	Compound NOT metabolized	Compound NOT metabolized	Compound NOT metabolized	Compound NOT metabolized	Compound NOT metabolized	Compound NOT metabolized
NS(=O)(=O)c1cc(C(=O)O)c(NCc2ccco2)cc1Cl [FUROSEMIDE]	Compound NOT metabolized	Compound NOT metabolized	Compound NOT metabolized	Compound NOT metabolized	Compound NOT metabolized	Compound NOT metabolized	Compound NOT metabolized	Compound NOT metabolized	Compound NOT metabolized	Compound NOT metabolized
COc1ccc([C@@H]2Sc3ccccc3N(CCN(C)C)C(=O)[C@@H]2OC(C)=O)cc1 [DILTIAZEM]	Compound metabolized	Compound metabolized	Compound NOT metabolized	Compound NOT metabolized	Compound metabolized	Compound NOT metabolized	Compound NOT metabolized	Compound metabolized	Compound metabolized	Compound metabolized
CC(C)NCC(O)COc1ccc(CC(N)=O)cc1 (stereo not given) [ATENOLOL]	Compound NOT metabolized	Compound NOT metabolized	Compound NOT metabolized	Compound NOT metabolized	Compound NOT metabolized	Compound NOT metabolized	Compound NOT metabolized	Compound NOT metabolized	Compound NOT metabolized	Compound NOT metabolized

Next, values leading:

Bacterial Biotransformation [1]	Bacterial Biotransformation [2]	Bacterial Biotransformation [3]	Bacterial Biotransformation [4]	Bacterial Biotransformation [5]	Bacterial Biotransformation [6]	Bacterial Biotransformation [7]	Bacterial Biotransformation [8]	Bacterial Biotransformation [9]	Bacterial Biotransformation [10]	Structure (SMILES)
Compound metabolized	Compound metabolized	Compound NOT metabolized	Compound NOT metabolized	Compound NOT metabolized	Compound NOT metabolized	Compound NOT metabolized	Compound metabolized	Compound NOT metabolized	Compound NOT metabolized	CO[C@H]1C[C@@H]2CC[C@@H](C)[C@@](O)(O2)C(=O)C(=O)N2CCCC[C@H]2C(=O)O[C@H]([C@H](C)C[C@@H]2CC[C@@H](O)[C@H](OC)C2)CC(=O)[C@H](C)/C=C(\C)[C@@H](O)[C@@H](OC)C(=O)[C@H](C)C[C@H](C)/C=C/C=C/C=C/1C [SIROLIMUS]
Compound NOT metabolized	Compound NOT metabolized	Compound NOT metabolized	Compound NOT metabolized	Compound NOT metabolized	Compound NOT metabolized	Compound metabolized	Compound metabolized	Compound metabolized	Compound metabolized	C[C@]12C=CC(=O)C=C1CC[C@@H]1[C@@H]2C(=O)C[C@@]2(C)[C@H]1CC[C@]2(O)C(=O)CO [PREDNISONE]
Compound metabolized	Compound metabolized	Compound metabolized	Compound NOT metabolized	Compound metabolized	Compound metabolized	Compound metabolized	Compound metabolized	Compound metabolized	Compound metabolized	COc1c(C)c2c(c(O)c1C/C=C(\C)CCC(=O)OCCN1CCOCC1)C(=O)OC2 [MYCOPHENOLATE MOFETIL]
Compound NOT metabolized	Compound NOT metabolized	Compound NOT metabolized	Compound NOT metabolized	Compound NOT metabolized	Compound NOT metabolized	Compound NOT metabolized	Compound metabolized	Compound metabolized	Compound metabolized	C[C@H]1C[C@@H]2[C@H]([C@@H](O)C[C@@]3(C)[C@H]2CC[C@]3(O)C(=O)CO)[C@@]2(C)C=CC(=O)C=C12 [METHYLPREDNISOLONE]
